pIC50: −log10 of the molar value.
The compounds below were run against T1, IL-17A/A (Homo sapiens, UniProt Q16552) (assay: IL-17A/A HEK-Blue Cell Assay). Details: HEK-Blue IL-17 reporter cells, IL-17A/A stimulation, 20 hours, SEAP readout; read-out: IL17 AA HEK-5 pIC50 (converted).
T1 sequence (Q16552 24-155): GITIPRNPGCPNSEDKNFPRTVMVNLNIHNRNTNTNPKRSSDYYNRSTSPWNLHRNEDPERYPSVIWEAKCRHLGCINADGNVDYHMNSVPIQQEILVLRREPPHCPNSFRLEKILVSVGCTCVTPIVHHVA
Assay type: cell-based
Method: The HEK-Blue IL-17 reporter cell line (Fisher #NC1408637) was used for cell-based IL-17A/A inhibition assays. Cells were grown and prepared for assays according to the manufacturer's instructions. This cell line consists of HEK 293 cells that were designed to expressed IL-17R^A, IL-17R^C, and the ActI adapter molecule, the combination of which, when stimulated by IL-17A/A activates a NFκB promoter and drives expression of a recombinant Secreted Alkaline Phosphatase (SEAP) protein. Media from the cells is then added to a development reagent (Quanti-Blue Substrate, Fisher #NC9711613), and read at A630.
Compounds were titrated in DMSO, with a top final compound concentration of 10 uM and added to the cells immediately before adding IL-17A/A (Genscript #Z03228). The cells, compound, and IL-17A/A were then incubated for 20 hours before media was removed for SEAP analysis. The resulting inhibition curve was then analyzed using a Dotmatics screening protocol, and IC50 values were determined using a 4-parameter nonlinear fit. DMSO was added to a universal final concentration of 0.1% to optimize background. IL-17A/A inhibition data is provided in Table 1 for selected compounds.

Compound | IC50 [nM]
CCC(=O)N[C@@H](C(=O)N1CCN(C)C[C@@H]1C)[C@@H](C)c1ccc(NC(=O)[C@@H](NC(=O)c2ccnn2CC)C(C2CC2)C2CC2)c(F)c1 [Compound 208] | < 10
CCC(=O)N[C@@H](C(=O)N1CC2(CN(C)C2)C1)[C@@H](C)c1ccc(NC(=O)[C@@H](NC(=O)c2ccnn2CC)C(C2CC2)C2CC2)c(F)c1 [Compound 238] | 100 to 10000
CCn1nccc1C(=O)N[C@H](C(=O)Nc1ccc([C@H](C)[C@@H](NC(=O)[C@H](C)OC)C(=O)N2C[C@H]3C[C@@H]2CN3C)cc1F)C(C1CC1)C1CC1 [Compound 256] | 10 to 100
CCC(=O)N[C@@H](C(=O)N1CCOCC1)[C@@H](C)c1ccc(NC(=O)[C@@H](NC(=O)c2ccnn2CCF)C(C2CC2)C2CC2)c(F)c1 [Compound 251] | 10 to 100
CCC(=O)N[C@@H](C(=O)N1CCN(C)CC1)[C@@H](C)c1ccc(NC(=O)[C@@H](NC(=O)c2ccnn2CC(F)F)C(C2CC2)C2CC2)c(F)c1 [Compound 231] | 10 to 100
CCC(=O)N[C@@H](C(=O)N1CCN(C)CC1)[C@@H](C)c1ccc(NC(=O)[C@@H](NC(=O)c2ccnn2CCO)C(C2CC2)C2CC2)c(F)c1 [Compound 243] | 100 to 10000
CCn1nccc1C(=O)N[C@H](C(=O)Nc1ccc([C@H](C)[C@@H](NC(=O)[C@H](C)OC)C(=O)N2CC[C@H](N(C)C)C2)cc1F)C(C1CC1)C1CC1 [Compound 255] | < 10
CCC(=O)N[C@@H](C(=O)N1C[C@H]2C[C@@H](C1)N2C)[C@@H](C)c1ccc(NC(=O)[C@@H](NC(=O)c2ccnn2CC)C(C2CC2)C2CC2)c(F)c1 [Compound 241] | 10 to 100
CO[C@@H](C)C(=O)N[C@@H](C(=O)N1C[C@H]2C[C@@H]1CN2C)[C@@H](C)c1ccc(NC(=O)[C@@H](NC(=O)c2ccnn2C(C)C)C(C2CC2)C2CC2)c(F)c1 [Compound 263] | 10 to 100
CCC(=O)N[C@@H](C(=O)N1C[C@H]2C[C@@H]1CN2C)[C@@H](C)c1ccc(NC(=O)[C@@H](NC(=O)c2ccnn2C(C)C)C(C2CC2)C2CC2)c(F)c1 [Compound 266] | 10 to 100
CO[C@@H](C)C(=O)N[C@@H](C(=O)N1CC[C@H](N(C)C)C1)[C@@H](C)c1ccc(NC(=O)[C@@H](NC(=O)c2ccnn2C(C)C)C(C2CC2)C2CC2)c(F)c1 [Compound 262] | < 10
CCC(=O)N[C@@H](C(=O)N1CC[C@H](N(C)C)C1)[C@@H](C)c1ccc(NC(=O)[C@@H](NC(=O)c2ccnn2C(C)C)C(C2CC2)C2CC2)c(F)c1 [Compound 265] | < 10
CCC(=O)N[C@@H](C(=O)N1CCN(C)CC1)[C@@H](C)c1ccc(NC(=O)[C@@H](NC(=O)c2nonc2CC)C(C2CC2)C2CC2)c(F)c1 [Compound 204] | < 10
CCn1nccc1C(=O)N[C@H](C(=O)Nc1ccc([C@H](C)[C@@H](NC(=O)CC2CC2)C(=O)N2CCN(C)[C@H](C)C2)cc1F)C(C1CC1)C1CC1 [Compound 226] | < 10
CCC(=O)N[C@@H](C(=O)N1CCN(C)CC1)[C@@H](C)c1ccc(NC(=O)[C@@H](NC(=O)c2ccnn2C2CC2)C(C2CC2)C2CC2)c(F)c1 [Compound 230] | 10 to 100
CCC(=O)N[C@@H](C(=O)N1CC[C@@H](N(C)C)C1)[C@@H](C)c1ccc(NC(=O)[C@@H](NC(=O)c2ccnn2CC)C(C2CC2)C2CC2)c(F)c1 [Compound 242] | 10 to 100
CCC(=O)N[C@@H](C(=O)N1CCC[C@@H](N)C1)[C@@H](C)c1ccc(NC(=O)[C@@H](NC(=O)c2ccnn2CC)C(C2CC2)C2CC2)c(F)c1 [Compound 268] | 10 to 100
CCOC(=O)N1CC[C@H]1C(=O)N[C@@H](C(=O)N1CCN(C)CC1)[C@@H](C)c1ccc(NC(=O)[C@@H](NC(=O)C2(F)CC2)C(C2CC2)C2CC2)c(F)c1 [Compound 274] | 10 to 100
CCC(=O)N[C@@H](C(=O)N1CCN(C)CC1)[C@@H](C)c1ccc(NC(=O)[C@H](NC(=O)c2ccnn2CC)C(C2CC2)C2CC2)c(F)c1 [Compound 201] | 10 to 100
CCC(=O)N[C@@H](C(=O)N1CCC(C)(O)CC1)[C@@H](C)c1ccc(NC(=O)[C@@H](NC(=O)c2ccnn2CCN2CCOCC2)C(C2CC2)C2CC2)c(F)c1 [Compound 252] | 10 to 100
CCC(=O)N[C@@H](C(=O)N1CCN(C)[C@H](C)C1)[C@@H](C)c1ccc(NC(=O)[C@@H](NC(=O)c2ccnn2CC(F)(F)F)C(C2CC2)C2CC2)c(F)c1 [Compound 248] | 10 to 100

Compound | IC50 [nM]
CO[C@@H](C)C(=O)N[C@@H](C(=O)N1C[C@H]2CC[C@@H](C1)N2C)[C@@H](C)c1ccc(NC(=O)[C@@H](NC(=O)c2ccnn2C(C)C)C(C2CC2)C2CC2)c(F)c1 [Compound 261] | < 10
CCC(=O)N[C@@H](C(=O)N1CCN(C)[C@H](C)C1)[C@@H](C)c1ccc(NC(=O)[C@@H](NC(=O)c2ccnn2CCO)C(C2CC2)C2CC2)c(F)c1 [Compound 244] | 100 to 10000
CCC(=O)N[C@@H](C(=O)N1CCC(C)(O)CC1)[C@@H](C)c1ccc(NC(=O)[C@@H](NC(=O)c2ccnn2CCF)C(C2CC2)C2CC2)c(F)c1 [Compound 250] | < 10
CCc1nonc1C(=O)N[C@H](C(=O)Nc1ccc([C@H](C)[C@@H](NC(=O)COC)C(=O)N2CCN(C)CC2)cc1F)C(C1CC1)C1CC1 [Compound 206] | < 10
CCn1nccc1C(=O)N[C@H](C(=O)Nc1ccc([C@H](C)[C@@H](NC(=O)CCF)C(=O)N2CCN(C)CC2)cc1F)C(C1CC1)C1CC1 [Compound 218] | 10 to 100
CCC(=O)N[C@@H](C(=O)N1CCN(C)C(COC)C1)[C@@H](C)c1ccc(NC(=O)[C@@H](NC(=O)c2ccnn2CC)C(C2CC2)C2CC2)c(F)c1 (single isomer, unassigned) [Compound 202] | 10 to 100
CO[C@@H](C)C(=O)N[C@@H](C(=O)N1CCN(C)[C@H](C)C1)[C@@H](C)c1ccc(NC(=O)[C@@H](NC(=O)c2ccnn2C(C)C)C(C2CC2)C2CC2)c(F)c1 [Compound 260] | < 10
CO[C@@H](C)C(=O)N[C@@H](C(=O)N1CCN(C)CC1)[C@@H](C)c1ccc(NC(=O)[C@@H](NC(=O)C2(F)CC2)C(C2CC2)C2CC2)c(F)c1 [Compound 272] | 10 to 100
CCC(=O)N[C@@H](C(=O)N1C[C@H]2CC[C@@H](C1)N2C)[C@@H](C)c1ccc(NC(=O)[C@@H](NC(=O)c2ccnn2C(C)C)C(C2CC2)C2CC2)c(F)c1 [Compound 264] | < 10
CCOC(=O)N(C)[C@@H](C)C(=O)N[C@@H](C(=O)N1CCN(C)[C@H](C)C1)[C@@H](C)c1ccc(NC(=O)[C@@H](NC(=O)c2ccnn2CC)C(C2CC2)C2CC2)c(F)c1 [Compound 210] | < 10
CCC(=O)N[C@@H](C(=O)N1CCN(C)CC1)[C@@H](C)c1ccc(NC(=O)[C@@H](NC(=O)c2ccnn2C2CC2(F)F)C(C2CC2)C2CC2)c(F)c1 (single isomer, unassigned) [Compound 234] | < 10
CCC(=O)N[C@@H](C(=O)N1C[C@H]2CN(C)C[C@H]2C1)[C@@H](C)c1ccc(NC(=O)[C@@H](NC(=O)c2ccnn2CC)C(C2CC2)C2CC2)c(F)c1 [Compound 237] | 100 to 10000
CCC(=O)N[C@@H](C(=O)N1C[C@@H]2C[C@H]1CN2C)[C@@H](C)c1ccc(NC(=O)[C@@H](NC(=O)c2ccnn2CC)C(C2CC2)C2CC2)c(F)c1 [Compound 235] | 10 to 100
CCC(=O)N[C@@H](C(=O)N1CCN(C)CC1)[C@@H](C)c1ccc(NC(=O)[C@@H](NC(=O)c2ccnn2C2CC2(F)F)C(C2CC2)C2CC2)c(F)c1 (single isomer, unassigned) [Compound 233] | 10 to 100
CCn1nccc1C(=O)N[C@H](C(=O)Nc1ccc([C@H](C)[C@@H](NC(=O)[C@H](C)OC)C(=O)N2C[C@H]3CC[C@@H](C2)N3C)cc1F)C(C1CC1)C1CC1 [Compound 254] | < 10
CCc1nonc1C(=O)N[C@H](C(=O)Nc1ccc([C@H](C)[C@@H](NC(=O)N(C)C2CC2)C(=O)N2CCN(C)CC2)cc1F)C(C1CC1)C1CC1 [Compound 224] | < 10
CCOC(=O)N(C)[C@@H](C)C(=O)N[C@@H](C(=O)N1CCN(C)CC1)[C@@H](C)c1ccc(NC(=O)[C@@H](NC(=O)c2ccnn2CC)C(C2CC2)C2CC2)c(F)c1 [Compound 211] | < 10
CCC(=O)N[C@@H](C(=O)N1CCN(C)[C@H](C)C1)[C@@H](C)c1ccc(NC(=O)[C@@H](NC(=O)c2ccnn2C(C)C)C(C2CC2)C2CC2)c(F)c1 [Compound 258] | < 10
CCC(=O)N[C@@H](C(=O)N1CCN(C)CC1)[C@@H](C)c1ccc(NC(=O)[C@@H](NC(=O)c2ccnn2CC(F)(F)F)C(C2CC2)C2CC2)c(F)c1 [Compound 249] | 10 to 100
CCn1nccc1C(=O)N[C@H](C(=O)Nc1ccc([C@H](C)[C@@H](NC(=O)CC2CC2)C(=O)N2CCN(C)CC2)cc1F)C(C1CC1)C1CC1 [Compound 227] | < 10
CO[C@@H](C)C(=O)N[C@@H](C(=O)N1CCN(C)CC1)[C@@H](C)c1ccc(NC(=O)[C@@H](NC(=O)c2ccnn2C(C)C)C(C2CC2)C2CC2)c(F)c1 [Compound 259] | < 10

Same assay, conditions: IL17 AA HEK-5 pIC50, HEK-Blue IL-17 reporter cells, IL-17A/A stimulation, 20 hours, SEAP readout

Compound | pIC50
CCn1nccc1C(=O)N[C@H](C(=O)Nc1ccc([C@H](C)[C@@H](NC(=O)CF)C(=O)N2CCN(C)[C@H](C)C2)cc1F)C(C1CC1)C1CC1 [Compound 228] | 7.00 to 8.00

— patent publication US20250177383A1, “DI-CYCLOPROPYL BASED IL-17A MODULATORS AND USES THEREOF” (DICE ALPHA, INC., priority 2022, published 2025)
